{"source": "ChEMBL document CHEMBL4507293", "about": "(2021)", "key": {"[1]": {"molecular_target": "Alpha-1D adrenergic receptor (Homo sapiens) (UniProt P25100)", "sequence (P25100 whole entry)": "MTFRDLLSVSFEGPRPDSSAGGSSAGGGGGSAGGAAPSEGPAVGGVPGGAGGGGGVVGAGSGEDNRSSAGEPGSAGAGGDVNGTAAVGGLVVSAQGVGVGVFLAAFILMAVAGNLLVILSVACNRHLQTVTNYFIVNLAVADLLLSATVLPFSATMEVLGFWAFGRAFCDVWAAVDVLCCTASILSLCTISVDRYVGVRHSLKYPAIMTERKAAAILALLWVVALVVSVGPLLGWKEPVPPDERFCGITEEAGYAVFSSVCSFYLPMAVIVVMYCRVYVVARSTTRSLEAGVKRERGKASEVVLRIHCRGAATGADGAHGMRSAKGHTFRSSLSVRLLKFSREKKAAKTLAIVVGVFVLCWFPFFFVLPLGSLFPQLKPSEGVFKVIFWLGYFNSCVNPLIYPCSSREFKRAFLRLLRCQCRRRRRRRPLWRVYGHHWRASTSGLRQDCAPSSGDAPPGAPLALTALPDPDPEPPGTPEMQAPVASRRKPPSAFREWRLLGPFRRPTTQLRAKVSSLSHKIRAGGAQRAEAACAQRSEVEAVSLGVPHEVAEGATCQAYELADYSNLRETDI", "experiment": "Inhibition of Adrenergic alpha1D at 10 µM in the Eurofins-Panlabs radioligand binding assay (Eurofins_assay_203400)", "details": "Compound concentration 10.0 uM; call rule not given here"}, "Rattus norvegicus [2]": {"organism": "Rattus norvegicus", "experiment": "Testosterone Eurofins-Panlabs radioligand binding assay", "parameters": "ligand concentration 1.5 nM", "details": "Compound concentration 10.0 uM"}, "[3]": {"molecular_target": "Glucocorticoid receptor (Homo sapiens) (UniProt P04150)", "sequence (P04150 whole entry)": "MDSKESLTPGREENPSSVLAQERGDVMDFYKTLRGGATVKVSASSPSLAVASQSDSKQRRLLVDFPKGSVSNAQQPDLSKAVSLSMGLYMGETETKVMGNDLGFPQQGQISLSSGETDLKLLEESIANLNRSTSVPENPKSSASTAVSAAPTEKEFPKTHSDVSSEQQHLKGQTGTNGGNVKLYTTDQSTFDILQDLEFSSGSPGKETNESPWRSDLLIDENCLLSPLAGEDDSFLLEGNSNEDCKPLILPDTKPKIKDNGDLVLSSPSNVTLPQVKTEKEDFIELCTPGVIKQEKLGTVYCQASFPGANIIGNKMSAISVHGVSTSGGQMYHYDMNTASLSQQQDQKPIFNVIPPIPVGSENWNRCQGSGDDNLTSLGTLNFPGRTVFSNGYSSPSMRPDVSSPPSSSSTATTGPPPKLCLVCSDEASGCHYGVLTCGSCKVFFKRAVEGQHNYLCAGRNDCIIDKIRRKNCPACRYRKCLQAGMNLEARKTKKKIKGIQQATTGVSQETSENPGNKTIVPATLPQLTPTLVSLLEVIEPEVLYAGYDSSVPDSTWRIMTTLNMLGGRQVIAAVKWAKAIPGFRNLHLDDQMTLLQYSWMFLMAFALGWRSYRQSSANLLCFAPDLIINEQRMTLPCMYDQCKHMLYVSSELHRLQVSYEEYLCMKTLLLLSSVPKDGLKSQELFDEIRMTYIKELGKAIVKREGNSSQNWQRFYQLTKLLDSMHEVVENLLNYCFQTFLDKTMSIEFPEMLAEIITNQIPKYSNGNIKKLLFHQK", "experiment": "Glucocorticoid Eurofins-Panlabs radioligand binding assay", "details": "Compound concentration 10.0 uM"}, "[4]": {"molecular_target": "Neuropeptide Y receptor type 2 (Homo sapiens) (UniProt P49146)", "sequence (P49146 whole entry)": "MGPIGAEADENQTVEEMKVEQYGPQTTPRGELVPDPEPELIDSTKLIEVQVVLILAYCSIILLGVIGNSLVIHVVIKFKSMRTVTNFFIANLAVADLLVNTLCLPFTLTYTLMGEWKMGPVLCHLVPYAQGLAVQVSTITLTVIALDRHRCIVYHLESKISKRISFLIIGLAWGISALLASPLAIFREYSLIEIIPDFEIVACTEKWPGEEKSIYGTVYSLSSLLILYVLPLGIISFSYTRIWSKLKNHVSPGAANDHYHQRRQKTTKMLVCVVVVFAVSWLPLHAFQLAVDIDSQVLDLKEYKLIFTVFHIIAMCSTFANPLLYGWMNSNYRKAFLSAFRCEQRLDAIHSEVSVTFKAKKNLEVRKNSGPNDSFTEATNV", "experiment": "Inhibition of Neuropeptide Y Y2 at 10 µM in the Eurofins-Panlabs radioligand binding assay (Eurofins_assay_257110)", "details": "Compound concentration 10.0 uM"}, "Homo sapiens [5]": {"organism": "Homo sapiens", "experiment": "Inhibition of Nicotinic Acetylcholine at compound concentration of 10.0 uM in the Eurofins-Panlabs radioligand binding assay (Eurofins_assay_258590)", "format": "protein-complex assay", "details": "Compound concentration 10.0 uM"}, "[6]": {"molecular_target": "B2 bradykinin receptor (Homo sapiens) (UniProt P30411)", "sequence (P30411 whole entry)": "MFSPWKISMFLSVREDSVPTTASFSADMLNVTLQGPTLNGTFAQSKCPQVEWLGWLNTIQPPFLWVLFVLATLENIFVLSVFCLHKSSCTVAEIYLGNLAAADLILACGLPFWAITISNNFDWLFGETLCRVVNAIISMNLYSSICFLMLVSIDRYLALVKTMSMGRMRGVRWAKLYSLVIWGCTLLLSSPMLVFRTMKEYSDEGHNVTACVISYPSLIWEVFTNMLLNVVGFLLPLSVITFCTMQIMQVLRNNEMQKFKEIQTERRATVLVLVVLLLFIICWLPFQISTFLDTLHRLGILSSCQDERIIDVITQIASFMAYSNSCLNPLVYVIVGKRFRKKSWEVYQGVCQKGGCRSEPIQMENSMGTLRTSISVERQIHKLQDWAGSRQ", "experiment": "Bradykinin B2 Eurofins-Panlabs radioligand binding assay", "details": "Compound concentration 10.0 uM"}, "[7]": {"molecular_target": "Phosphodiesterase 3 (Homo sapiens) (UniProt Q14432+Q13370)", "experiment": "Inhibition of Phosphodiesterase PDE3 at compound concentration of 10.0 uM in the Eurofins-Panlabs enzyme assay (Eurofins_assay_152000)", "format": "protein assay", "parameters": "substrate with concentration 1.01 uM [3H] cAMP + cAMP, incubation time 20 min, incubation temperature 25 C", "details": "Compound concentration 10.0 uM"}, "[8]": {"molecular_target": "5-hydroxytryptamine receptor 1B (Homo sapiens) (UniProt P28222)", "experiment": "Inhibition of Serotonin (5-Hydroxytryptamine) 5-HT1B at 10 µM in the Eurofins-Panlabs radioligand binding assay (Eurofins_assay_271200)", "details": "Compound concentration 10.0 uM"}, "[9]": {"molecular_target": "Vasoactive intestinal polypeptide receptor 1 (Homo sapiens) (UniProt P32241)", "sequence (P32241 whole entry)": "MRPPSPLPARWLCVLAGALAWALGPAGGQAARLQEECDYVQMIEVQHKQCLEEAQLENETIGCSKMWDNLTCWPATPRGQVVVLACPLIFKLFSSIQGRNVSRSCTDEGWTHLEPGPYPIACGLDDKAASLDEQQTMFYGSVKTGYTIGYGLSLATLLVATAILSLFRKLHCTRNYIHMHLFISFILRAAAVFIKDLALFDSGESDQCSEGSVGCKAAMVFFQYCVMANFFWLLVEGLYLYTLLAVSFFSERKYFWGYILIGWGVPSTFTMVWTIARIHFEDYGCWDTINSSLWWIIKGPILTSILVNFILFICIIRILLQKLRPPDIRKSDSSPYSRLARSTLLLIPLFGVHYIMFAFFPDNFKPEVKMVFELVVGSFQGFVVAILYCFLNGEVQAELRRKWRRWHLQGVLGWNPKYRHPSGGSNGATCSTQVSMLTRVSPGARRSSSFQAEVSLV", "experiment": "Inhibition of Vasoactive Intestinal Peptide VIP1 at 10 µM in the Eurofins-Panlabs radioligand binding assay (Eurofins_assay_287010)", "details": "Compound concentration 10.0 uM"}, "[10]": {"molecular_target": "Histamine H3 receptor (Homo sapiens) (UniProt Q9Y5N1)", "experiment": "Histamine H3 Eurofins-Panlabs radioligand binding assay", "details": "Compound concentration 10.0 uM"}, "[11]": {"molecular_target": "Monoamine oxidase B (MAO-B) (Homo sapiens, UniProt P27338)", "experiment": "Inhibition of Monoamine Oxidase MAO-B at compound concentration of 10.0 uM in the Eurofins-Panlabs enzyme assay (Eurofins_assay_140120)", "parameters": "substrate with concentration 50 uM Kynuramine, incubation time 60 min, incubation temperature 37 C", "details": "recombinant human MAO-B expressed in insect Hi5 cells, probe kynuramine, compound concentration 10 uM"}, "Caspase-8 (Homo sapiens)": {"molecular_target": "Caspase-8 (Homo sapiens) (UniProt Q14790)", "experiment": "Peptidase, CASP8 (Caspase 8) Eurofins-Panlabs enzyme assay", "details": "Compound concentration 10.0 uM"}, "Caspase-9 (Homo sapiens)": {"molecular_target": "Caspase-9 (Homo sapiens) (UniProt P55211)", "experiment": "Peptidase, CASP9 (Caspase 9) Eurofins-Panlabs enzyme assay", "parameters": "substrate with concentration", "details": "Compound concentration 10.0 uM"}, "[12]": {"molecular_target": "MAP/microtubule affinity-regulating kinase 3 (Homo sapiens) (UniProt P27448)", "experiment": "Protein Serine/Threonine Kinase, MARK3 Eurofins-Panlabs enzyme assay", "details": "Compound concentration 10.0 uM"}, "[13]": {"molecular_target": "Tyrosine 3-monooxygenase (Homo sapiens) (UniProt P07101)", "experiment": "Tyrosine Hydroxylase Eurofins-Panlabs enzyme assay", "parameters": "substrate with concentration", "details": "Rattus norvegicus; Compound concentration 10.0 uM"}, "[14]": {"molecular_target": "C-X-C chemokine receptor type 4 (Homo sapiens) (UniProt P61073)", "experiment": "Chemokine CXCR4 Eurofins-Panlabs radioligand binding assay", "parameters": "ligand concentration 0.03 nM", "details": "Compound concentration 10.0 uM"}, "Homo sapiens [15]": {"organism": "Homo sapiens", "experiment": "Glutamate, Metabotropic, mGlu5 Eurofins-Panlabs radioligand binding assay", "details": "Compound concentration 10.0 uM"}, "[16]": {"molecular_target": "Neurotensin receptor type 1 (Homo sapiens) (UniProt P30989)", "experiment": "Neurotensin NT1 Eurofins-Panlabs radioligand binding assay", "parameters": "ligand concentration 0.02 nM, non-specific ligand with concentration 1 µM Neurotensin, incubation time 45 min, incubation temperature 25 °C", "details": "Compound concentration 10.0 uM"}, "[17]": {"molecular_target": "Thyrotropin-releasing hormone receptor (Homo sapiens) (UniProt P34981)", "sequence (P34981 whole entry)": "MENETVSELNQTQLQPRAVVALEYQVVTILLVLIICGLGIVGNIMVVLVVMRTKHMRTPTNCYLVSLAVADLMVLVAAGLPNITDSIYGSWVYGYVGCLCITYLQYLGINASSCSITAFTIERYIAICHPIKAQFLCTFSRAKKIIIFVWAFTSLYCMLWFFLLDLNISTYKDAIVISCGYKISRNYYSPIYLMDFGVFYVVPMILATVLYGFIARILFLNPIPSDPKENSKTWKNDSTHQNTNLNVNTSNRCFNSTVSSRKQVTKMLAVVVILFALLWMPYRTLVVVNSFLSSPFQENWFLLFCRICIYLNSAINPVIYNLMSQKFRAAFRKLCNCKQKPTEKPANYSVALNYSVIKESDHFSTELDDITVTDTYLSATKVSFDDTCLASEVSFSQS", "experiment": "Thyrotropin Releasing Hormone (TRH) Eurofins-Panlabs radioligand binding assay", "parameters": "ligand concentration 3 nM", "details": "Rattus norvegicus; Compound concentration 10.0 uM"}, "[18]": {"molecular_target": "High affinity choline transporter 1 (Homo sapiens) (UniProt Q9GZV3)", "experiment": "Transporter, Choline Eurofins-Panlabs radioligand binding assay", "parameters": "ligand concentration 0.75 nM", "details": "Rattus norvegicus; Compound concentration 10.0 uM"}, "[19]": {"molecular_target": "Epidermal growth factor receptor (Homo sapiens) (UniProt P00533)", "experiment": "Protein Tyrosine Kinase, EGF Receptor Eurofins-Panlabs enzyme assay", "parameters": "substrate with concentration 10 µg/mL Poly(Glu:Tyr), incubation time 60 min, incubation temperature 25 °C", "details": "Compound concentration 10.0 uM"}, "[20]": {"molecular_target": "Type-1 angiotensin II receptor (Homo sapiens) (UniProt P30556)", "experiment": "Angiotensin AT1 Eurofins-Panlabs radioligand binding assay", "details": "Compound concentration 10.0 uM"}, "Homo sapiens [21]": {"organism": "Homo sapiens", "experiment": "Cholecystokinin CCK2 (CCKB) Eurofins-Panlabs radioligand binding assay", "parameters": "ligand concentration 0.072 nM, non-specific ligand with concentration 1 µM Sincalide, incubation time 3 h, incubation temperature 25 °C", "details": "Compound concentration 10.0 uM"}, "[22]": {"molecular_target": "Prostaglandin E2 receptor EP1 subtype (Homo sapiens) (UniProt P34995)", "sequence (P34995 whole entry)": "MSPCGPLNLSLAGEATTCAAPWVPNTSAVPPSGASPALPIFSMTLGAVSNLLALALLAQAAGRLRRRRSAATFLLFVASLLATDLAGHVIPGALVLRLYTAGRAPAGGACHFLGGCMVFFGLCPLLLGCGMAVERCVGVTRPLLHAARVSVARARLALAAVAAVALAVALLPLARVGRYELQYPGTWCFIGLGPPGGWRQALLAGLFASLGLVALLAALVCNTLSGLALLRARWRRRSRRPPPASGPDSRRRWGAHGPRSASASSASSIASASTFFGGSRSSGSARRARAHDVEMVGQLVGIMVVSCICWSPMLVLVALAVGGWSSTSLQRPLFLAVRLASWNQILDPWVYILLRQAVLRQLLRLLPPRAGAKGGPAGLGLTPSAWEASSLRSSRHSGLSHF", "experiment": "Prostanoid EP1 Eurofins-Panlabs radioligand binding assay", "details": "Compound concentration 10.0 uM"}, "[23]": {"molecular_target": "Endothelin receptor type B (Homo sapiens) (UniProt P24530)", "details": "Compound concentration 10.0 uM"}, "[24]": {"molecular_target": "Histamine H1 receptor (Homo sapiens) (UniProt P35367)", "details": "Compound concentration 10.0 uM"}, "Rattus norvegicus [25]": {"organism": "Rattus norvegicus", "details": "Compound concentration 10.0 uM"}, "[26]": {"molecular_target": "Sodium-dependent serotonin transporter (Homo sapiens) (UniProt P31645)", "details": "Compound concentration 10.0 uM"}, "[27]": {"molecular_target": "GABA-A receptor; anion channel (Rattus norvegicus) (UniProt O09028+P15431+P18506+P18508+P19969+P20236+P23574+P23576+P28471+P28473+P30191+P62813+P63079+P63138+Q91ZM7+Q9ES14)", "details": "Compound concentration 10.0 uM"}, "[28]": {"molecular_target": "T1, 5-hydroxytryptamine receptor 2C (Homo sapiens) (UniProt P28335)", "T1 sequence (whole entry)": "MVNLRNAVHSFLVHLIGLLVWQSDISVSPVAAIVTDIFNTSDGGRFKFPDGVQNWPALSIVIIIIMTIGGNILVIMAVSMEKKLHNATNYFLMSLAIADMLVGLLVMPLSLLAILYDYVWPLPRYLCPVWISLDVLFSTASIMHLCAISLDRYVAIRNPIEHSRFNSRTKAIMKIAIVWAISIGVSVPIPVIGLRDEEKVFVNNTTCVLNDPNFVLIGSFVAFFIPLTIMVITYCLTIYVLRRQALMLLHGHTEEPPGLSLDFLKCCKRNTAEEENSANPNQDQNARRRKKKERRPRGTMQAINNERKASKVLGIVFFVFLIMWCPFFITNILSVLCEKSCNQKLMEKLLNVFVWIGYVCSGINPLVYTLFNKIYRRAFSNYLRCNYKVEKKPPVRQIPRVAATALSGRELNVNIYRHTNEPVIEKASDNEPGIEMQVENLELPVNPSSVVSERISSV", "details": "Compound concentration 10.0 uM"}, "[29]": {"molecular_target": "Vasopressin V1a receptor (Homo sapiens) (UniProt P37288)", "sequence (P37288 whole entry, looked up)": "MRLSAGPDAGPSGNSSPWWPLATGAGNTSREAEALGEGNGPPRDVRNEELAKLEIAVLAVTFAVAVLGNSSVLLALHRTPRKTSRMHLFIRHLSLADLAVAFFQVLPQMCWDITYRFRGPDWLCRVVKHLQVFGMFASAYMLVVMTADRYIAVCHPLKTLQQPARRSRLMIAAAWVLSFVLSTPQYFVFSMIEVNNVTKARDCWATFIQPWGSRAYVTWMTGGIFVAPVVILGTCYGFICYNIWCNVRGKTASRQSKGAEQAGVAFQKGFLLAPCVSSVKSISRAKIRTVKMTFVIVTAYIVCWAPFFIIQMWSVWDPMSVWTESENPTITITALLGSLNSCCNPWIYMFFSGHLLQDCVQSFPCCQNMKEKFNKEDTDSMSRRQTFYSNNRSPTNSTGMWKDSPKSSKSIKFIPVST", "details": "Compound concentration 10.0 uM"}, "[30]": {"molecular_target": "Gamma-aminobutyric acid type B receptor subunit 1 (Homo sapiens) (UniProt Q9UBS5)", "sequence (Q9UBS5 whole entry)": "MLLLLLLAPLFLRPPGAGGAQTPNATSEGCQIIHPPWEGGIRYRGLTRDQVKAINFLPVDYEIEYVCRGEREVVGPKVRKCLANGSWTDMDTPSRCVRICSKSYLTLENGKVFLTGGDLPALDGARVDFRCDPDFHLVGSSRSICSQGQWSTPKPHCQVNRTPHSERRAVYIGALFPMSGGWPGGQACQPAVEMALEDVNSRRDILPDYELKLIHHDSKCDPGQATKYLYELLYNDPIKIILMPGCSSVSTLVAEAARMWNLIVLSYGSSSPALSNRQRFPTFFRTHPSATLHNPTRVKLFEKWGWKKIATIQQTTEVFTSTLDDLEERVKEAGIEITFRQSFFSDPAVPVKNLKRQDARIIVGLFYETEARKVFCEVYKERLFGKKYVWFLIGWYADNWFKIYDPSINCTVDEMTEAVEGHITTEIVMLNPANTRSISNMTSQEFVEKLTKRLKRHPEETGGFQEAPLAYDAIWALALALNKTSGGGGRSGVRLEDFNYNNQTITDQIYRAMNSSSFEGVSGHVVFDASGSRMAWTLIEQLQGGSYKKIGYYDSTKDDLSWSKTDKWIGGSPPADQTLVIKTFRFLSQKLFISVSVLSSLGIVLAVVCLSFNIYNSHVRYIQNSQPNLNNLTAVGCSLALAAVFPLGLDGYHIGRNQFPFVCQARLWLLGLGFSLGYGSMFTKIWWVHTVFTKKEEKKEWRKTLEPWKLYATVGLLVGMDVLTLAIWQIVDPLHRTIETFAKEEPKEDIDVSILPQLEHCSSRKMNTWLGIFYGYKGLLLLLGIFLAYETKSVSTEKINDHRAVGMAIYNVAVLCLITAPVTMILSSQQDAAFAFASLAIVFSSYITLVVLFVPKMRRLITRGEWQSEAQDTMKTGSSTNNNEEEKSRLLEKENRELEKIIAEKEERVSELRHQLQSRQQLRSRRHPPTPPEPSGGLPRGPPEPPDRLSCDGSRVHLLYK", "details": "Rattus norvegicus; Compound concentration 10.0 uM"}, "[31]": {"molecular_target": "5-hydroxytryptamine receptor 7 (Homo sapiens, UniProt P34969)", "experiment": "GPCRScan assay: inhibition of 5-HT7A", "parameters": "radioligand conc. used [nm] 5.0 – 6.0, parental cells Stable HEK"}}, "data": [{"smiles": "COCCOc1nc(-c2ccc(Cl)nc2)nc2c1CN(C(=O)c1ncn3ccccc13)CC2", "note": "[THPP-1]", "values": [{"measurement": "inhibition", "setting": "[1]", "value": 45, "unit": "%"}, {"measurement": "inhibition", "setting": "Rattus norvegicus [2]", "value": 7, "unit": "%"}, {"measurement": "inhibition", "setting": "[3]", "value": -6, "unit": "%"}, {"measurement": "inhibition", "setting": "[4]", "value": 1, "unit": "%"}, {"measurement": "inhibition", "setting": "Homo sapiens [5]", "value": -7, "unit": "%"}, {"measurement": "inhibition", "setting": "[6]", "value": 13, "unit": "%"}, {"measurement": "inhibition", "setting": "[7]", "value": 45, "unit": "%"}, {"measurement": "inhibition", "setting": "[8]", "value": 7, "unit": "%"}, {"measurement": "inhibition", "setting": "[9]", "value": 8, "unit": "%"}, {"measurement": "inhibition", "setting": "[10]", "value": -1, "unit": "%"}, {"measurement": "inhibition at 60 min, 10 µM", "setting": "[11]", "value": "32% (not active)"}, {"measurement": "inhibition", "setting": "Caspase-8 (Homo sapiens)", "value": -3, "unit": "%"}, {"measurement": "inhibition", "setting": "Caspase-9 (Homo sapiens)", "value": -5, "unit": "%"}, {"measurement": "inhibition", "setting": "[12]", "value": 7, "unit": "%"}, {"measurement": "inhibition", "setting": "[13]", "value": 4, "unit": "%"}, {"measurement": "inhibition", "setting": "[14]", "value": 4, "unit": "%"}, {"measurement": "inhibition", "setting": "Homo sapiens [15]", "value": 22, "unit": "%"}, {"measurement": "inhibition", "setting": "[16]", "value": 10, "unit": "%"}, {"measurement": "inhibition", "setting": "[17]", "value": 7, "unit": "%"}, {"measurement": "inhibition", "setting": "[18]", "value": 9, "unit": "%"}, {"measurement": "inhibition", "setting": "[19]", "value": 6, "unit": "%"}, {"measurement": "inhibition", "setting": "[20]", "value": 3, "unit": "%"}, {"measurement": "inhibition", "setting": "Homo sapiens [21]", "value": -8, "unit": "%"}, {"measurement": "inhibition", "setting": "[22]", "value": -1, "unit": "%"}, {"measurement": "inhibition", "setting": "[23]", "value": 0, "unit": "%"}, {"measurement": "inhibition", "setting": "[24]", "value": 0, "unit": "%"}, {"measurement": "inhibition", "setting": "Rattus norvegicus [25]", "value": -9, "unit": "%"}, {"measurement": "inhibition", "setting": "[26]", "value": 2, "unit": "%"}, {"measurement": "inhibition", "setting": "[27]", "value": 4, "unit": "%"}, {"measurement": "inhibition", "setting": "[28]", "value": 22, "unit": "%"}, {"measurement": "inhibition", "setting": "[29]", "value": 1, "unit": "%"}, {"measurement": "inhibition", "setting": "[30]", "value": -5, "unit": "%"}]}, {"smiles": "CC(C)CC(=O)N1CCc2nc(-c3ccc(Br)cc3)nc(N(C)Cc3ccccc3)c2C1", "note": "[THPP-1-NC]", "values": [{"measurement": "Ki", "setting": "[31]", "value": 578, "unit": "nM"}]}]}
